The compounds below were run against T1, human CRTH2 (Homo sapiens, UniProt Q9Y5Y4) (assay: CRTH-2 binding assay (scintillation proximity assay, inhibition of 3H-PGD2 binding)). Conditions: membranes from 293EBNA-hCRTH2 cells, 3H-PGD2 3.6 nM; Ki calculated from IC50.
T1 sequence (Q9Y5Y4 1-395): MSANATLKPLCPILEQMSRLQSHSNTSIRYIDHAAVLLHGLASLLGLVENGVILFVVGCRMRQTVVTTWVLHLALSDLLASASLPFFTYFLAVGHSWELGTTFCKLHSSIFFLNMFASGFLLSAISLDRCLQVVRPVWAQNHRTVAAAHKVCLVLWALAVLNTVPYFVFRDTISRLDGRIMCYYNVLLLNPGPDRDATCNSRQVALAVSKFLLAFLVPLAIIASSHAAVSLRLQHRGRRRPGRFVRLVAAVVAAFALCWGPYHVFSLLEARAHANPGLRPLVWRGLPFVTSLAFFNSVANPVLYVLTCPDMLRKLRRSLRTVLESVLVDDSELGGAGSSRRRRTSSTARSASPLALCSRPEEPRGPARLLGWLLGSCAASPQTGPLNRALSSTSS
Parameters: expressed in transfected cells; host or cells: 293EBNA-hCRTH2 cells (membrane preparation)
Protocol: A CRTH2 binding assay was developed to measure the ability of compounds to inhibit the binding of PGD2 to human CRTH2 using a scintillation proximity assay.
Membranes containing hCRTH2 receptors were prepared from 293EBNA-hCRTH2 cells (a 293EBNA cell line stably expressing human CRTH2). The cells were grown to confluency, harvested and washed with PBS. The cells were resuspended in 10 mM Hepes pH 7.4, 1 mM EDTA and protease inhibitors and incubated for 30 min on ice. The cells were homogenized and centrifuged for 10 min at 1000×g. The supernate was centrifuged for 30 min at 100,000×g and the membrane pellet was then resuspended in 10 mM Hepes pH 7.4 and 1 mM EDTA. The protein concentration of the membrane preparation was determined by Bradford assay (Bio-Rad).
The ability of compounds to inhibit the interaction of PGD2 to human CRTH2 was determined at seven compound concentrations. Compounds were serially diluted in DMSO then diluted into CRTH2 buffer (10 mM Hepes pH 7.4, 1 mM EDTA, 10 mM MnCl2) to six times the final desired concentration. 20 μL of the diluted compounds were transferred into non-surface binding 96-well plates (Corning). Each concentration was done in triplicate. In addition to test compounds, each plate contained 12 control wells. Six of these wells contained 20 μL of CRTH2 buffer. These wells were used to measure total binding. Six wells contained 20 μL of CRTH2 buffer plus 1.5 mM indomethacin. These wells were used to measure non-specific binding. Next, 293EBNA-hCRTH2 membranes were resuspended in CRTH2 buffer with glycerol (10 mM Hepes pH 7.4, 1 mM EDTA, 10 mM MnCl2, 25% glycerol) so that the final concentration was approximately 20 μg/100 μL. Polylysine-coated yttrium silicate SPA beads (Amersham) were added to the membrane mix to a concentration of 0.4 mg/100 μL and finally ^3H-PGD2 was added to the membrane/SPA bead mix to 3.6 nM. 100 μL of the membrane/SPA bead/^3H-PGD2 mix was added to each well of the non-surface binding plates containing the diluted compound or controls. The plates were incubated for 2 hours at room temperature with shaking and then the plates were counted on a Microbeta scintillation counter (Perkin Elmer) for 1 min per well.
IC50 values were determined from the experimental results by nonlinear regression using Prism 4.0 software. The IC50 values were then used in conjunction with the Kd for hCRTH2 and the ^3H-PGD2 concentration used in the experiment to calculate the Ki for each compound.

SMILES | Ki [µM]
CCCc1nc2cc(N(Cc3ccc(F)cc3)S(=O)(=O)CC)ccc2n1CC(=O)O [Example 29, {5-[Ethanesulfonyl-(4-fluoro-benzyl)-amino]-2-propyl-benzoimidazol-1-yl}-acetic acid] | < 1
CCCc1nc2cc(N(Cc3ccc(F)cc3)C(=O)COC)ccc2n1CC(=O)O [Example 30, {5-[(4-Fluoro-benzyl)-(2-methoxy-acetyl)-amino]-2-propyl-benzoimidazol-1-yl}-acetic acid] | < 1
CCCc1nc2cc(N(Cc3ccc(F)cc3)C(=O)C3CC3)ccc2n1CC(=O)O [Example 31, {5-[Cyclopropanecarbonyl-(4-fluoro-benzyl)-amino]-2-propyl-benzoimidazol-1-yl}-acetic acid] | < 1
CCCc1nc2cc(N(Cc3ccc(F)cc3)C(=O)c3ccccc3)ccc2n1CC(=O)O [Example 32, {5-[Benzoyl-(4-fluoro-benzyl)-amino]-2-propyl-benzoimidazol-1-yl}-acetic acid] | < 1
CCCc1nc2cc(N(Cc3ccc(F)cc3)C(C)=O)ccc2n1CC(=O)O [Example 33, {5-[Acetyl-(4-fluoro-benzyl)-amino]-2-propyl-benzoimidazol-1-yl}-acetic acid] | < 0.1
CCCc1nc2c(N(Cc3ccccc3)S(=O)(=O)c3cccc(F)c3)cccc2n1CC(=O)O [Example 34, {4-[Benzyl-(3-fluoro-benzenesulfonyl)-amino]-2-propyl-benzoimidazol-1-yl}-acetic acid] | < 1
CCCc1nc2c(N(CCOC)S(=O)(=O)c3cccc(F)c3)cccc2n1CC(=O)O [Example 35, {4-[(3-Fluoro-benzenesulfonyl)-(2-methoxy-ethyl)-amino]-2-propyl-benzoimidazol-1-yl}-acetic acid] | < 10
CCCc1nc2c(N(CCC(C)C)S(=O)(=O)c3cccc(F)c3)cccc2n1CC(=O)O [Example 36, {4-[(3-Fluoro-benzenesulfonyl)-(3-methyl-butyl)-amino]-2-propyl-benzoimidazol-1-yl}-acetic acid] | < 1
CCCc1nc2c(N(Cc3ccc(F)cc3)S(=O)(=O)c3cccc(F)c3)cccc2n1CC(=O)O [Example 37, {4-[(3 -Fluoro-benzenesulfonyl)-(4-fluoro-benzyl)-amino]-2-propyl-benzoimidazol-1-yl}-acetic acid] | < 1
CCCc1nc2c(N(C(C)C)S(=O)(=O)c3cccc(F)c3)cccc2n1CC(=O)O [Example 38, {4-[(3-Fluoro-benzenesulfonyl)-isopropyl-amino]-2-propyl-benzoimidazol-1-yl}-acetic acid] | < 10
CCCc1nc2c(N(Cc3ccccc3)S(=O)(=O)Cc3ccc(F)cc3)cccc2n1CC(=O)O [Example 39, {4-[Benzyl-(4-fluoro-phenylmethanesulfonyl)-amino]-2-propyl-benzoimidazol-1-yl}-acetic acid] | < 1
CCCc1nc2cccc(N(Cc3ccccc3)S(=O)(=O)c3ccc(F)cc3)c2n1CC(=O)O [Example 40, {7-[Benzyl-(4-fluoro-benzenesulfonyl)-amino]-2-propyl-benzoimidazol-1-yl}-acetic acid] | > 10
CCCc1nc2cc(N(Cc3ccccc3Cl)S(=O)(=O)c3ccc(F)cc3)ccc2n1CC(=O)O [Example 41, {5-[(2-Chloro-benzyl)-(4-fluoro-benzenesulfonyl)-amino]-2-propyl-benzoimidazol-1-yl}-acetic acid] | < 0.1
CCCc1nc2cc(N(Cc3cccc(Cl)c3)S(=O)(=O)c3ccc(F)cc3)ccc2n1CC(=O)O [Example 42, {5-[(3 -Chloro-benzyl)-(4-fluoro-benzenesulfonyl)-amino]-2-propyl-benzoimidazol-1-yl}-acetic acid] | < 0.1
CCCc1nc2cc(N(Cc3cccc(Cl)c3Cl)S(=O)(=O)c3ccc(F)cc3)ccc2n1CC(=O)O [Example 44, {5-[(2,3-Dichloro-benzyl)-(4-fluoro-benzenesulfonyl)-amino]-2-propyl-benzoimidazol-1-yl}-acetic acid] | < 0.1
CCCc1nc2cc(N(Cc3ccccc3C(F)(F)F)S(=O)(=O)c3ccc(F)cc3)ccc2n1CC(=O)O [Example 45, {5-[(2-Trifluoromethyl-benzyl)-(4-fluoro-benzenesulfonyl)-amino]-2-propyl-benzoimidazol-1-yl}-acetic acid] | < 1
CCCc1nc2cc(N(CCCc3ccccc3)S(=O)(=O)c3ccc(F)cc3)ccc2n1CC(=O)O [Example 48, {5-[(4-Fluoro-benzenesulfonyl)-(3-phenyl-propyl)-amino]-2-propyl-benzoimidazol-1-yl}-acetic acid] | < 0.1
CCCc1nc2cc(N(Cc3cccc(F)c3)S(=O)(=O)c3ccc(F)cc3)ccc2n1CC(=O)O [Example 50, {5-[(4-Fluoro-benzenesulfonyl)-(3-fluoro-benzyl)-amino]-2-propyl-benzoimidazol-1-yl}-acetic acid] | < 1
CCCc1nc2cc(N(Cc3cccc(C(F)(F)F)c3)S(=O)(=O)c3ccc(F)cc3)ccc2n1CC(=O)O [Example 51, {5-[(4-Fluoro-benzenesulfonyl)-(3-trifluoromethyl-benzyl)-amino]-2-propyl-benzoimidazol-1-yl}-acetic acid] | < 1
CCCc1nc2cc(N(Cc3ccc(C#N)cc3)S(=O)(=O)c3ccc(F)cc3)ccc2n1CC(=O)O [Example 52, {5-[(4-Cyano-benzyl)-(4-fluoro-benzenesulfonyl)-amino]-2-propyl-benzoimidazol-1-yl}-acetic acid] | < 0.1
CCCc1nc2cc(N(Cc3ccc(OC(F)(F)F)cc3)S(=O)(=O)c3ccc(F)cc3)ccc2n1CC(=O)O [Example 53, {5-[(4-Trifluoromethoxy-benzyl)-(4-fluoro-benzenesulfonyl)-amino]-2-propyl-benzoimidazol-1-yl}-acetic acid] | < 0.1
CCCc1nc2cc(N(Cc3ccccc3C#N)S(=O)(=O)c3ccc(F)cc3)ccc2n1CC(=O)O [Example 54, {5-[(2-Cyano-benzyl)-(4-fluoro-benzenesulfonyl)-amino]-2-propyl-benzoimidazol-1-yl}-acetic acid] | < 1
CCCc1nc2cc(N(Cc3nc4ccccc4s3)S(=O)(=O)c3ccc(F)cc3)ccc2n1CC(=O)O [Example 55, {5-[Benzothiazol-2-ylmethyl-(4-fluoro-benzenesulfonyl)-amino]-2-propyl-benzoimidazol-1-yl}-acetic acid] | < 0.1
C/C=C/CN(c1ccc2c(c1)nc(CCC)n2CC(=O)O)S(=O)(=O)c1ccc(F)cc1 [Example 56, {5-[But-2-enyl-(4-fluoro-benzenesulfonyl)-amino]-2-propyl-benzoimidazol-1-yl}-acetic acid] | < 0.1
CCCc1nc2cc(N(Cc3ccccc3)C(C)=O)ccc2n1CC(=O)O [Example 57, [5-(Acetyl-benzyl-amino)-2-propyl-benzoimidazol-1-yl]-acetic acid] | < 10
CCCc1nc2cc(N(Cc3ccccc3)C(=O)C(C)C)ccc2n1CC(=O)O [Example 58, [5-(Benzyl-isobutyryl-amino)-2-propyl-benzoimidazol-1-yl]-acetic acid] | > 10
CCCc1nc2cc(N(Cc3ccccc3)C(=O)CC(C)C)ccc2n1CC(=O)O [Example 59, {5-[Benzyl-(3-methyl-butyryl)-amino]-2-propyl-benzoimidazol-1-yl}-acetic acid] | < 10
CCCc1nc2cc(N(Cc3ccccc3)C(=O)C3CCCC3)ccc2n1CC(=O)O [Example 60, [5-(Benzyl-cyclopentanecarbonyl-amino)-2-propyl-benzoimidazol-1-yl]-acetic acid] | < 10
CCCc1nc2cc(N(Cc3ccccc3)C(=O)C3CCCCC3)ccc2n1CC(=O)O [Example 61, [5-(Benzyl-cyclohexanecarbonyl-amino)-2-propyl-benzoimidazol-1-yl]-acetic acid] | < 10
